Experimental data: patent US7138404B2, “4-aminopyrimidine derivatives” (Hoffmann-La Roche Inc., priority 2001, dated 2006)

How the values were obtained:
rat mGlu 5a receptor = biological target: T1, rat mGlu 5a receptor (Rattus norvegicus, UniProt P31424); experiment: [Ca2+]i measurement (FLIPR) on mGlu 5a transfected EBNA cells, antagonist mode; format: cell-based; settings: rat mGlu 5a transiently transfected EBNA cells; Fluo 3-AM; tested against 10 μM glutamate as agonist
T1 construct: expressed in transfected cells; host or cells: EBNA cells (transient transfection)
Experimental: The pharmacological activity of the compounds was tested using the following method:
cDNA encoding rat mGlu 5a receptor was transiently transfected into EBNA cells using a procedure described by E. -J. Schlaeger and K. Christensen (Cytotechnology 1998, 30, 71–83). [Ca^2+]i measurements were performed on mGlu 5a transfected EBNA cells after incubation of the cells with Fluo 3-AM (obtainable by FLUKA, 0.5 μM final concentration) for 1 hour at 37° C. followed by 4 washes with assay buffer (DMEM supplemented with Hank's salt and 20 mM HEPES. [Ca^2+]i measurements were done using a fluorometric imaging plate reader (FLIPR, Molecular Devices Corporation, La Jolla, Calif., USA). When compounds were evaluated as antagonists they were tested against 10 μM glutamate as agonist.
The inhibition (antagonists) curves were fitted with a four parameter logistic equation giving IC50, and Hill coefficient using the iterative non linear curve fitting software Origin (Microcal Software Inc., Northampton, Mass., USA).

T1 sequence (P31424 21-1171 isoform P31424-2 limits assumed): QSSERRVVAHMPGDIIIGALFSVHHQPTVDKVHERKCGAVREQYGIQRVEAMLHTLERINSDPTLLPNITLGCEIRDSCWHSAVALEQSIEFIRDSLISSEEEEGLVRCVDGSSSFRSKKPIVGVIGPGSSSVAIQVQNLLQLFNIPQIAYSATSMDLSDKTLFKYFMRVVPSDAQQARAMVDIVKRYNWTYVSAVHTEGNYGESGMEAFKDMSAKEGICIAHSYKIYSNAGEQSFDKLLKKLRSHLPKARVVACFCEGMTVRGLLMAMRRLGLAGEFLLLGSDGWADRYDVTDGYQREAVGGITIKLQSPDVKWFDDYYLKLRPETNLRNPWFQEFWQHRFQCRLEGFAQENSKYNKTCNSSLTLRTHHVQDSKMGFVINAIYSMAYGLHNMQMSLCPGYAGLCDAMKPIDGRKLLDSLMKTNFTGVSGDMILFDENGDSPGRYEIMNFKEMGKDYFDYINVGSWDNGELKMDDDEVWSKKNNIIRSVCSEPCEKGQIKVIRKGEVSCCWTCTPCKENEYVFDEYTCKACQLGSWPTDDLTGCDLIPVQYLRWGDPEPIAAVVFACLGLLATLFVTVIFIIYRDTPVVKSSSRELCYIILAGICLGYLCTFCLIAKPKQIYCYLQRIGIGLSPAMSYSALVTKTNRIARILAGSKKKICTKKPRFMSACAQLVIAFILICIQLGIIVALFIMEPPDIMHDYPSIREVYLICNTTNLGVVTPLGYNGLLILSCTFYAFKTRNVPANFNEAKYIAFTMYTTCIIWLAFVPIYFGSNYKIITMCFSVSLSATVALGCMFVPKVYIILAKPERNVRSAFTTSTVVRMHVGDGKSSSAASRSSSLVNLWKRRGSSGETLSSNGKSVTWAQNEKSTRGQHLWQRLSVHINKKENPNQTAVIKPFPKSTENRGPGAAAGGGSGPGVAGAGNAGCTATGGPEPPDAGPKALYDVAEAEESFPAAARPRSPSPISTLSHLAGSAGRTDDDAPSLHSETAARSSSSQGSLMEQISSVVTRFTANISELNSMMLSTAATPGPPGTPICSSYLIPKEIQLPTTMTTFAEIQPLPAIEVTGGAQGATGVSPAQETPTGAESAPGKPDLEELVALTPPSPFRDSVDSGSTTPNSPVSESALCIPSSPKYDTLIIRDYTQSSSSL

| Structure (SMILES) | IC50 (rat mGlu 5a receptor) [µM] | melting point [°C] |
| --- | --- | --- |
| CC1CC1COC(=O)CSc1ncc(Cc2ccccc2)c(N)n1 (centres unmarked) [Example 24, (4-Amino-5-benzyl-pyrimidin-2-ylsulfanyl)-acetic acid 2-methyl-cyclopropylmethyl ester] | 0.63 |  |
| C#CCSc1ncc(Cc2cccs2)c(N)n1 [Example 8, 2-Prop-2-ynylsulfanyl-5-thiophen-2-ylmethyl-pyrimidin-4-ylamine] | 1.39 |  |
| CCNc1nc(SCC(=O)OCC)ncc1Cc1cccs1 [Example 21, (4-Ethylamino-5-thiophen-2-ylmethyl-pyrimidin-2-ylsulfanyl)-acetic acid ethyl ester] | 0.6 |  |
| Nc1nc(SCc2nc(C3CC3)no2)ncc1Cc1ccccc1 [Example 33, 5-Benzyl-2-(3-cyclopropyl-[1,2,4]oxadiazol-5-ylmethylsulfanyl)-pyrimidin-4-ylamine] |  | 94 |
| Nc1nc(SCC(=O)OCC2CCC2)ncc1Cc1ccccc1 [Example 25, (4-Amino-5-benzyl-pyrimidin-2-ylsulfanyl)-acetic acid cyclobutylmethyl ester] | 1.46 |  |
| CCOC(=O)CSc1ncc(-c2ccc(Cl)cc2Cl)c(N)n1 [Example 5, [4-Amino-5-(2,4-dichloro-phenyl)-pyrimidin-2-ylsulfanyl]-acetic acid ethyl ester] | 3.85 |  |
| C=CCSc1ncc(Cc2cccs2)c(N)n1 [Example 9, 2-Allylsulfanyl-5-thiophen-2-ylmethyl-pyrimidin-4-ylamine] | 2.79 |  |

Further lines, results first:

| IC50 (rat mGlu 5a receptor) [µM] | melting point [°C] | Structure (SMILES) |
| --- | --- | --- |
| 0.4 |  | Nc1nc(SCc2ncon2)ncc1Cc1cccs1 [Example 11, 2-([1,2,4]Oxadiazol-3-ylmethylsulfanyl)-5-thiophen-2-ylmethyl-pyrimidin-4-ylamine] |
| 0.27 |  | CCOC(=O)CSc1ncc(C(=O)OCC)c(N)n1 [Example 19, 4-Amino-2-ethoxycarbonylmethylsulfanyl-pyrimidine-5-carboxylic acid ethyl ester] |
| 0.38 |  | CCOC(=O)CSc1ncc(Cc2cccn2C)c(N)n1 [Example 4, [4-Amino-5-(1-methyl-1H-pyrrol-2-ylmethyl)-pyrimidin-2-ylsulfanyl]-acetic acid ethyl ester] |
| 0.16 |  | CCOC(=O)CSc1ncc(Cc2ccoc2)c(N)n1 [Example 13, (4-Amino-5-furan-3-ylmethyl-pyrimidin-2-ylsulfanyl)-acetic acid ethyl ester] |
| 0.18 |  | CCOC(=O)CSc1ncc(Cc2ccc(Br)cc2)c(N)n1 [Example 6, [4-Amino-5-(4-bromo-benzyl)-pyrimidin-2-ylsulfanyl]-acetic acid ethyl ester] |
| 0.18 |  | CCOC(=O)CSc1ncc(Cc2ccsc2)c(N)n1 [Example 12, (4-Amino-5-thiophen-3-ylmethyl-pyrimidin-2-ylsulfanyl)-acetic acid ethyl ester] |
| 0.14 |  | CCOC(=O)CSc1ncc(Cc2ccccc2)c(N)n1 [Example 3, (4-Amino-5-benzyl-pyrimidin-2-ylsulfanyl)-acetic acid ethyl ester] |
| 0.12 |  | C=CCOC(=O)CSc1ncc(Cc2ccccc2)c(N)n1 [Example 22, (4-Amino-5-benzyl-pyrimidin-2-ylsulfanyl)-acetic acid allyl ester] |
| 0.2 |  | Nc1nc(SCC(=O)OCC2CC2)ncc1Cc1ccccc1 [Example 29, (4-Amino-5-benzyl-pyrimidin-2-ylsulfanyl)-acetic acid cyclopropylmethyl ester] |
| 0.16 |  | CCOC(=O)CSc1ncc(Cc2cccs2)c(NCC(C)C)n1 [Example 31] |
